# Tests used:
# [1] = Intrinsic clearance in mouse liver microsomes at 3 uM measured up to 50 mins by LC-MS analysis; format: ADME, Microsome; conditions: read-out: CLH
# [2] = Toxicity in zebrafish embryos assessed as induction of heart edema by measuring unaffected embryos level at 0.1 uM after 72 hrs (reference value: 100%); format: tissue-based, Danio rerio; conditions: in vivo
# [3] = molecular target: T1, Mitogen-activated protein kinase kinase kinase 7 (Homo sapiens) (UniProt O43318); assay: Binding affinity to wild-type human partial length TAK1 (M1 to Q303 residues) expressed in mammalian expression system assessed as residual binding level at 10 uM by active-site directed competition binding assay based Kinomescan method relative to control
# T1 sequence (whole entry): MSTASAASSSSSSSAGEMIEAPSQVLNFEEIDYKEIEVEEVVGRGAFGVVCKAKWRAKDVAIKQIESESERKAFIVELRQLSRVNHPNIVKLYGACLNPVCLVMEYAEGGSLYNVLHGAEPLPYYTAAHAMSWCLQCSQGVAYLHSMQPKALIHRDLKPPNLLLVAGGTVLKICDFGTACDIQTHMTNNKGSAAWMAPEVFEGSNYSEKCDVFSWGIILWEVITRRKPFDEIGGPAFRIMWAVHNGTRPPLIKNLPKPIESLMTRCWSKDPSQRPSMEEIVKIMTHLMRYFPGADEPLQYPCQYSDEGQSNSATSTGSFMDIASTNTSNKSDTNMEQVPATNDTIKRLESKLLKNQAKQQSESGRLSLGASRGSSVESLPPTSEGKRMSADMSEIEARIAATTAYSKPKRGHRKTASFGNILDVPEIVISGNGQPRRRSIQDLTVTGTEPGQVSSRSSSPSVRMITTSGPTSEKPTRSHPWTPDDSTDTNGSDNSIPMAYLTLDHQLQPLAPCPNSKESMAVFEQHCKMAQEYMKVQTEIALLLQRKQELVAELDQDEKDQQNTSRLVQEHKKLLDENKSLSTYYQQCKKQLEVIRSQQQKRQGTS
# [4] = molecular target: Serine/threonine-protein kinase pim-2 (Homo sapiens, UniProt Q9P1W9); assay: Binding affinity to wild-type human partial length PIM2 (M1 to E291 residues) expressed in bacterial expression system assessed as residual binding level at 10 uM by active-site directed competition binding assay based Kinomescan method relative to control
# Chain of Serine/threonine-protein kinase pim-2 (Q9P1W9 whole entry, looked up, the tested form may be a part): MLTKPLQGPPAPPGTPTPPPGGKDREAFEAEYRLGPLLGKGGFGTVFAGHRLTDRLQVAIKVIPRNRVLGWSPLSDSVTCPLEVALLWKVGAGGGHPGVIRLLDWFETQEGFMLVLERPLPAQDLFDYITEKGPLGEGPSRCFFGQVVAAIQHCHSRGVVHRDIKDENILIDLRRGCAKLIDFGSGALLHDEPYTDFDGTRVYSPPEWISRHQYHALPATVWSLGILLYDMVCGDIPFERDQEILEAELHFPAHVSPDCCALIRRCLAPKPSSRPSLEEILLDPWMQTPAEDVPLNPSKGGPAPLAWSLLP
# [5] = Toxicity in zebrafish embryos assessed as induction of heart edema by measuring unaffected embryos level at 1.4 uM after 72 hrs (reference value: 100%); format: tissue-based, Danio rerio; conditions: in vivo
# [6] = Toxicity in zebrafish embryos assessed as survival at 14 uM after 72 hrs (reference value: 95%); parameters: species or system Danio rerio; conditions: in vivo
# [7] = tested on: HT-29; assay: Cytotoxicity in human HT-29 cells assessed as reduction in cell viability by MTS assay; format: functional, cell-based; conditions: TDE = time-dependent effect
# [8] = Toxicity in zebrafish embryos assessed as induction of tail degeneration by measuring unaffected embryos level at 0.1 uM after 72 hrs (reference value: 100%); format: tissue-based, Danio rerio; conditions: in vivo
# [9] = Stability in mouse plasma assessed as parent compound remaining level at 5 uM incubated for 1 hr by LC-MS analysis; format: ADME, cell-free; conditions: read-out: Stability
# [10] = molecular target: Serine/threonine-protein kinase SIK3 (Homo sapiens, UniProt Q9Y2K2); assay: Binding affinity to wild-type human partial length SIK3 (A90 to L395 residues) expressed in mammalian expression system assessed as residual binding level at 10 uM by active-site directed competition binding assay based Kinomescan method relative to control
# Chain of Serine/threonine-protein kinase SIK3 (Q9Y2K2 whole entry, looked up, the tested form may be a part): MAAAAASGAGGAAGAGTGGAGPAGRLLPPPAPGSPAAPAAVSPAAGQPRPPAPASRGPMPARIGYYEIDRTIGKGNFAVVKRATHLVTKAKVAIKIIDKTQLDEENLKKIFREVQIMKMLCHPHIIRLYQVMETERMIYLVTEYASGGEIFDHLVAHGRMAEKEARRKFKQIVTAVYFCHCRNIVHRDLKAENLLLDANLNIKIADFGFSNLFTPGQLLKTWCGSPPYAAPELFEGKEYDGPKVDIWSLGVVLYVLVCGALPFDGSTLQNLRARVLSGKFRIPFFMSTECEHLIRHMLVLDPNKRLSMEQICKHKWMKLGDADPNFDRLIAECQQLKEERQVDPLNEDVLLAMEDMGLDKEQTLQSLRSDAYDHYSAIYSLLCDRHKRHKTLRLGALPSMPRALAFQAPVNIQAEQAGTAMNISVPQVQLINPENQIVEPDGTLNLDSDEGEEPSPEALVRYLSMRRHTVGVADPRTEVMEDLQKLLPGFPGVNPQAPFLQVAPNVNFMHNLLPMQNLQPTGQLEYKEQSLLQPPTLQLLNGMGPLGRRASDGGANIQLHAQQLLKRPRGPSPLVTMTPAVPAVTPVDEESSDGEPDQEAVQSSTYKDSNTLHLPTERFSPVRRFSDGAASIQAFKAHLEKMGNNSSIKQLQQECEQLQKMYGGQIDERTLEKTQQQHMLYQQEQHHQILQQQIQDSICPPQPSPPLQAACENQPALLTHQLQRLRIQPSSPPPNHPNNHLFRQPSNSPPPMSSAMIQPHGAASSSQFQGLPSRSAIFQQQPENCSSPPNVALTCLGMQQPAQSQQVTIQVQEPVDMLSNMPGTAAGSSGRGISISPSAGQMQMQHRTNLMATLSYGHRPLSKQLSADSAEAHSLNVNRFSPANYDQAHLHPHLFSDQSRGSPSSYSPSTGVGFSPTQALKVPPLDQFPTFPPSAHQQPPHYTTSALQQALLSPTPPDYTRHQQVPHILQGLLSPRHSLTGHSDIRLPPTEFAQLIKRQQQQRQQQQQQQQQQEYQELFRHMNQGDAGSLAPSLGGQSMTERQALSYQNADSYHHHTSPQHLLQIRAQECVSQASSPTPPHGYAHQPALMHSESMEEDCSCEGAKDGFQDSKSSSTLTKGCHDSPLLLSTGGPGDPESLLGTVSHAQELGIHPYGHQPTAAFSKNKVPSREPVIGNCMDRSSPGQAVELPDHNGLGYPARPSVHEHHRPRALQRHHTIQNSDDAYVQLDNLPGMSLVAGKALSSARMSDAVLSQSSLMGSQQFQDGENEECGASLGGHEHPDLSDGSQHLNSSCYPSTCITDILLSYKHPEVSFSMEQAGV
# [11] = molecular target: Tyrosine-protein kinase JAK1 (Homo sapiens, UniProt P23458); assay: Binding affinity to wild-type human partial length JAK1 JH2 domain-pseudokinase expressed in bacterial expression system by active-site directed competition binding assay based Kinomescan method
# Chain of Tyrosine-protein kinase JAK1 (P23458 whole entry, the tested form may be a part): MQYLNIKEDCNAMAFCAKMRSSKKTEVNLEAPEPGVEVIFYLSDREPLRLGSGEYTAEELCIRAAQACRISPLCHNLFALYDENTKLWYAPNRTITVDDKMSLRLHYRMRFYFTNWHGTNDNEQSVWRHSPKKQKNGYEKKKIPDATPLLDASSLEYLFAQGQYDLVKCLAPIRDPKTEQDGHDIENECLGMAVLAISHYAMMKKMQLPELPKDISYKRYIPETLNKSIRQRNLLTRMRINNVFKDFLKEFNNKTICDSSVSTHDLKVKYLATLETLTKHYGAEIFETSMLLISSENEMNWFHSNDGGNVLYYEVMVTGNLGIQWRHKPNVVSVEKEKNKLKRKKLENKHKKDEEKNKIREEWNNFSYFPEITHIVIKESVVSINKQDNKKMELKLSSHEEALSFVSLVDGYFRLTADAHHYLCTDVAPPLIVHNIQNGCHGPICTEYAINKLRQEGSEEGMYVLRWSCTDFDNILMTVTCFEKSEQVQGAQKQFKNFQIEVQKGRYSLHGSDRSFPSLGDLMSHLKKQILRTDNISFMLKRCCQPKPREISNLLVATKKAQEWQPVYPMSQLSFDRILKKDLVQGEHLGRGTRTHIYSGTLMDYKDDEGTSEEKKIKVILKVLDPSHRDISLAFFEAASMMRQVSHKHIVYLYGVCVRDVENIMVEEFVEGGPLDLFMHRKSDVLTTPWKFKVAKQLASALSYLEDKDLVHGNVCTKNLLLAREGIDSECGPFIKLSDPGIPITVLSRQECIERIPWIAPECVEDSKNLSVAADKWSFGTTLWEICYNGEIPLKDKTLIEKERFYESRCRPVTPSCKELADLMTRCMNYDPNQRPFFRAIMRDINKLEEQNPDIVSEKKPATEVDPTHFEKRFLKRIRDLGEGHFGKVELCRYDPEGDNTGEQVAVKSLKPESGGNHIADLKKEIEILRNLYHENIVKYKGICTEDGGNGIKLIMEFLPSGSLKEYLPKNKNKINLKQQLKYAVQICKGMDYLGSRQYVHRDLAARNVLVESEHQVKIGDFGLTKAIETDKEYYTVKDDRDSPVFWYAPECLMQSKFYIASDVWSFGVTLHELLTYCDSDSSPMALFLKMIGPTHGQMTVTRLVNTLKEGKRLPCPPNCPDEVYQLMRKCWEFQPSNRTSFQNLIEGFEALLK
# [12] = molecular target: T2, Mitogen-activated protein kinase kinase kinase kinase 2 (Homo sapiens) (UniProt Q12851); assay: Inhibition of GCK (unknown origin) assessed as residual enzyme activity at 50 uM by [33P]-ATP filter binding kinase assay relative to control
# T2 sequence (whole entry): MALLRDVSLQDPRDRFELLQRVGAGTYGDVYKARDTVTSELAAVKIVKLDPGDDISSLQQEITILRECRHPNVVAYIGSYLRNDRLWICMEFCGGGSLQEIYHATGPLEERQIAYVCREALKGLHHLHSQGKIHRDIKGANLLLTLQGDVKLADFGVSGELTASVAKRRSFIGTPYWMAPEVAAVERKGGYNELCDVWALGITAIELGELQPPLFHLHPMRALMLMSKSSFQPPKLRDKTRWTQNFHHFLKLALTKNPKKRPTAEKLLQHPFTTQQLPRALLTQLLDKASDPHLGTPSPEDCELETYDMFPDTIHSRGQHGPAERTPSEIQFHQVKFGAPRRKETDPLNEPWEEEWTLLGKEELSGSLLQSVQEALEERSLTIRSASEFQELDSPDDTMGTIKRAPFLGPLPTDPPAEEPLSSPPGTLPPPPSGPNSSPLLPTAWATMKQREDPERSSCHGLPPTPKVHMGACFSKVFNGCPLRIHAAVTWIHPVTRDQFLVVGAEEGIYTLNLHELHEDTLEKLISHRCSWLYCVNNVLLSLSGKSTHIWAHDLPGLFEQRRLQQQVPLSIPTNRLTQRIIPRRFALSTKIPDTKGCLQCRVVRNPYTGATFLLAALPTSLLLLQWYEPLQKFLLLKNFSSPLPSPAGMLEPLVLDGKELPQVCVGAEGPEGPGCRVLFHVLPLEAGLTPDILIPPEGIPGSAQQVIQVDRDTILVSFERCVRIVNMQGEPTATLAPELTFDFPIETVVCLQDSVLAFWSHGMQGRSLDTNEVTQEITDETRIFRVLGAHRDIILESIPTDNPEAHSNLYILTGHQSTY
# [13] = Kinetic solubility in pH 7.4 aqueous buffer at 500 uM by spectrophotometry; format: physicochemical; conditions: read-out: Kinetic_solubility
# [14] = Toxicity in zebrafish embryos assessed as induction of scoliosis by measuring unaffected embryos level at 1.4 uM after 72 hrs (reference value: 100%); parameters: species or system Danio rerio; conditions: in vivo
# [15] = Toxicity in zebrafish embryos assessed as induction of tail degeneration by measuring unaffected embryos level at 14 uM after 72 hrs (reference value: 100%); format: tissue-based, Danio rerio; conditions: in vivo
# [16] = molecular target: Mitogen-activated protein kinase 15 (Homo sapiens) (UniProt Q8TD08); assay: Inhibition of ERK8 (unknown origin) assessed as residual enzyme activity at 50 uM by [33P]-ATP filter binding kinase assay relative to control
# Chain of Mitogen-activated protein kinase 15 (Homo sapiens) (Q8TD08 whole entry): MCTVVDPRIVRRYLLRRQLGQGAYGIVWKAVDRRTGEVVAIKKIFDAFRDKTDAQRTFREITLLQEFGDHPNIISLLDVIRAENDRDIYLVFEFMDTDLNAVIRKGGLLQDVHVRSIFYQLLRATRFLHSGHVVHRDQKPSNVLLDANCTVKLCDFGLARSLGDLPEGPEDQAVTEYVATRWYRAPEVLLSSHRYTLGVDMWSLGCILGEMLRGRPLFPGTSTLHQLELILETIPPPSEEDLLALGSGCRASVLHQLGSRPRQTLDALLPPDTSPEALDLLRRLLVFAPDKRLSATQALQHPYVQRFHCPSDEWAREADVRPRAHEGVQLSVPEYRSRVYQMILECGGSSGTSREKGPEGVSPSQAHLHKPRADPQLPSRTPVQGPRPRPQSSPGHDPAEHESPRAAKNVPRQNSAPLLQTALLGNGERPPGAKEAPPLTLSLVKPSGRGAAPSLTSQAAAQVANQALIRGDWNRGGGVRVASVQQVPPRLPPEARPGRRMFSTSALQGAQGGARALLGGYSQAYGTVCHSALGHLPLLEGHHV
# [17] = Toxicity in zebrafish embryos assessed as induction of heart edema by measuring unaffected embryos level at 14 uM after 72 hrs (reference value: 100%); format: tissue-based, Danio rerio; conditions: in vivo
# [18] = molecular target: Cyclin-G-associated kinase (Homo sapiens, UniProt O14976); assay: Binding affinity to wild-type human partial length GAK (G13 to Y338 residues) expressed in bacterial expression system by active-site directed competition binding assay based Kinomescan method
# Chain of Cyclin-G-associated kinase (O14976 whole entry, the tested form may be a part): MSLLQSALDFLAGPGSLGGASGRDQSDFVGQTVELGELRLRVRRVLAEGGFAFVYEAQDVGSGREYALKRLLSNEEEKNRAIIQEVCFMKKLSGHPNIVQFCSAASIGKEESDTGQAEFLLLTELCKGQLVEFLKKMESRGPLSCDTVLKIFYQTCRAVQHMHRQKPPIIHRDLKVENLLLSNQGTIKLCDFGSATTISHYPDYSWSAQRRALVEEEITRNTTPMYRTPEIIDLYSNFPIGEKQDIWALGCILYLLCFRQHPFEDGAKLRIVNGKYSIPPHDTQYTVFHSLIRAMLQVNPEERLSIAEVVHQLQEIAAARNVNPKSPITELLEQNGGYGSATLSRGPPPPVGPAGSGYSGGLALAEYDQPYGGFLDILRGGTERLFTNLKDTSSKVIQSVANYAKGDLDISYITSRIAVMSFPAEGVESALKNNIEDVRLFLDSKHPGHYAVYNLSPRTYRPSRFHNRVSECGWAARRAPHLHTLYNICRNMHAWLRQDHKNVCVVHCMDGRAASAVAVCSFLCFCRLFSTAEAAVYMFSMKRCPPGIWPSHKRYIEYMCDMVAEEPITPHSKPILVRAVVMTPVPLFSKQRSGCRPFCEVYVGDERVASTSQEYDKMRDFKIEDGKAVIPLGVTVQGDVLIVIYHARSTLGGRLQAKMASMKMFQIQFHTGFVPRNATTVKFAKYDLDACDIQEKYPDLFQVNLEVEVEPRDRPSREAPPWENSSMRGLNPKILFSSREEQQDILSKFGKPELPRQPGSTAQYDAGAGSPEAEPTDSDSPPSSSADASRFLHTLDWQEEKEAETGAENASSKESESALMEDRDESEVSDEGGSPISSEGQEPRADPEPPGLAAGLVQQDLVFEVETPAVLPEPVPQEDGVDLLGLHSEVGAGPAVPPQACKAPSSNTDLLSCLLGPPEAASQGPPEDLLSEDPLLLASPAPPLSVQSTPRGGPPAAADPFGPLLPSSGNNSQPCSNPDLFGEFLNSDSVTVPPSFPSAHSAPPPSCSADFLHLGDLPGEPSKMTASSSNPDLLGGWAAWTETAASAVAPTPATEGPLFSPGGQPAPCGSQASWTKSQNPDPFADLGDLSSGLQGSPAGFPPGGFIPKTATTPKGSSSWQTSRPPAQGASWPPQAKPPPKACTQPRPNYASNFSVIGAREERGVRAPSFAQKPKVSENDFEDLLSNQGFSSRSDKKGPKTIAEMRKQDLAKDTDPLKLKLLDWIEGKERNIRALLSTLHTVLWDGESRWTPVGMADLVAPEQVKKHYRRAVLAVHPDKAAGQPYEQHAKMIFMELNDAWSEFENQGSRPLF
# [19] = molecular target: Testis-specific serine/threonine-protein kinase 1 (Homo sapiens) (UniProt Q9BXA7); assay: Inhibition of TSSK1 (unknown origin) assessed as residual enzyme activity at 50 uM by [33P]-ATP filter binding kinase assay relative to control
# Chain of Testis-specific serine/threonine-protein kinase 1 (Homo sapiens) (Q9BXA7 whole entry): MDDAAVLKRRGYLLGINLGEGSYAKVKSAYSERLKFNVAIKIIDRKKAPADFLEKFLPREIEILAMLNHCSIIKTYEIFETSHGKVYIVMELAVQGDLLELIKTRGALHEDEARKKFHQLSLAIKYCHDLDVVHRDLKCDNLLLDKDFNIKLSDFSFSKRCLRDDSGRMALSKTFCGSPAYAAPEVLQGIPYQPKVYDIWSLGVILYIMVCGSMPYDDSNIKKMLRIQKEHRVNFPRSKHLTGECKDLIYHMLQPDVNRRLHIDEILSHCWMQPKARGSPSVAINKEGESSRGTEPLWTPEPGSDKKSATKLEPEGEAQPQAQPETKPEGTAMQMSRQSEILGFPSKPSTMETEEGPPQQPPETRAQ
Activity [19] [%],Structure (SMILES),microsomal CLint at 3 µM [1] [µL/min/mg],Activity [2] [%],Activity [3] [%],Activity [4] [%],Activity [5] [%],"survival at 72 h, 14 µM [6] [%]",Activity [7],Activity [8] [%],"remaining at 1 h, 5 µM [9] [%]",Activity [10] [%],Kd [11] [nM],Activity [12] [%],solubility kinetic at 500 µM [13] [µM],Activity [14] [%],Activity [15] [%],Activity [16] [%],Activity [17] [%],Kd [18] [nM]
,COc1cc2c(-c3cnc(-c4ccc[nH]4)o3)c[nH]c2cc1Br,47,95,70,54,100,5,Tde,100,84,94,1000,7,156,89,0,9,100,440
21,COc1cc(Br)cc2[nH]cc(-c3oc(-c4ccc[nH]4)nc3I)c12,,,,,,,,,,,,,,,,,,

# Source: ChEMBL document CHEMBL4334516, “Kinase Chemodiversity from the Arctic: The Breitfussins” (J Med Chem, 2019)
